According to patent US11787762B2, “Tetralin and tetrahydroquinoline compounds as inhibitors of HIF-2alpha” (ARCUS BIOSCIENCES, INC., priority 2020, dated 2023):

What was measured:
HIF-2α = molecular target: T1, HIF-2α (Homo sapiens, UniProt Q99814); assay: HIF-2α luciferase reporter assay in HIF-Luc-786-O cells; type: cell-based
T1 construct: host or cells: 786-O cells stably transduced with Cignal Lenti HIF Luc Reporter (only the reporter was introduced, not HIF-2α)
Procedure, shortened: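 Luminescence (ONE-Glo) read after 20 h compound incubation, top concentration 50 uM, 1% DMSO, 20,000 HIF-Luc-786-O cells per well. Activity scaled between DMSO maximum and no-cell baseline; four-parameter dose-response fits yielded IC50.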

[1] = molecular target: T2, Histidine tagged HIF-2α protein containing PAS-B domain (240-350) (Homo sapiens, UniProt Q99814); assay: HIF-2α Scintillation Proximity Assay (SPA) binding assay; conditions: 50 nM HIF-2α protein, 25 nM 3H-tracer
T2 construct: HIF-2α protein containing PAS-B domain (240-350); made in house
Protocol: HIF-2α Scintillation Proximity Assay (SPA) Binding Assay:
Tritium labeled compound N-(3-chlorophenyl)-4-nitro-2,1,3-benzoxadiazol-5-amine was obtained from American Radiolabeled Chemicals Inc. and copper chelate PVT SPA beads were from PerkinElmer (Cat #RPNQ0095). Histidine tagged HIF-2α protein containing PAS-B domain (240-350) was prepared and purified in house.
Compounds solubilized in DMSO were dispensed into a white 384-well polystyrene non-binding flat clear bottom plate (Greiner Bio-One, Cat #781903) using an HP D300 dispenser. Ten microliters of HIS-tagged HIF-2α protein in buffer (25 mM Tris-HCl, pH 7.4, 150 mM NaCl, 0.15% BSA and 0.001% Tween 20) was added to the compound wells and allowed to incubate for 1 hour at room temperature. Ten microliters of SPA bead mix were added to the wells and incubated for an additional 45 minutes, followed by 10 ul of ^3H-tracer solution. Final assay conditions comprised 50 nM HIF-2α protein, 25 nM radiolabeled tracer and 3 ug beads per well with compounds in 2% DMSO. The plate was read using a MicroBeta Microplate Counter (PerkinElmer) for luminescence detection. The IC50 values of the test compounds were determined from compound dose response curves fitted using a standard four parameter fit equation and are reported in Table 1, Table 2, and Table 3.

T2 sequence (Q99814 240-350): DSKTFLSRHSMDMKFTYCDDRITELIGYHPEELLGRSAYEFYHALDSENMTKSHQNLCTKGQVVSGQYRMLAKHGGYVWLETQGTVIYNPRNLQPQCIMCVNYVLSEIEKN
T1 sequence (Q99814 whole entry): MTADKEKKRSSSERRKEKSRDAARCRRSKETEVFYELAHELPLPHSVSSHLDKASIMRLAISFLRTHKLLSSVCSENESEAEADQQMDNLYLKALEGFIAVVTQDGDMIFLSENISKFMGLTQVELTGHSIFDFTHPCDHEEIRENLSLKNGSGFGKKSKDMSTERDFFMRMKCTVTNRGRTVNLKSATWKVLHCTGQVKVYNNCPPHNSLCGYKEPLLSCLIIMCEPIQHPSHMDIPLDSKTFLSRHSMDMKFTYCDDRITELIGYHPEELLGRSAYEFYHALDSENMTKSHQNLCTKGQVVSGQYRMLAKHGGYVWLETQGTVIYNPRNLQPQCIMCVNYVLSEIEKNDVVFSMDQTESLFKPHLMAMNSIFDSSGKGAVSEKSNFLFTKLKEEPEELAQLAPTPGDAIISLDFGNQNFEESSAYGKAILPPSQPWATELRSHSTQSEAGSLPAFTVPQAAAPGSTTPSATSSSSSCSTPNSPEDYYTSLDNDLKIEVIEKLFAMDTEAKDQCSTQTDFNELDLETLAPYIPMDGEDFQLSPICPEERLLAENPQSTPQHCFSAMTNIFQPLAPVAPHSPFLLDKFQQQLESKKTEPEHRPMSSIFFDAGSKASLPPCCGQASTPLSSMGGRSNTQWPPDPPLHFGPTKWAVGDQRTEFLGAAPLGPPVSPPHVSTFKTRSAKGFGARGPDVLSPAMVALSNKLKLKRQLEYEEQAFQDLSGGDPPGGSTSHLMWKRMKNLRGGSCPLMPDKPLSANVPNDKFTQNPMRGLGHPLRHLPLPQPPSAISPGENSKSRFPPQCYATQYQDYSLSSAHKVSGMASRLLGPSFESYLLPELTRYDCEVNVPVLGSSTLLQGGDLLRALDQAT

Structure (SMILES)	IC50 (HIF-2α; Table 1, 20 hours incubation) [nM]	IC50 ([1]; Table 1) [nM]	other results
N#Cc1cc(F)cc2c1N(c1ccc(S(=O)(=O)C(F)(F)F)c3cnccc13)CCC2 [Example 16, 6-fluoro-1-[8-(trifluoromethylsulfonyl)-5-isoquinolyl]-1,2,3,4-tetrahydroquinoline-8-carbonitrile]	100 to 1000	100 to 1000	
O=S(=O)(c1ccc(N2C[C@H](O)Cc3cc(F)cc(F)c32)c2c1[C@H](O)[C@H](F)C2)C(F)(F)F [Example 50]	> 1000	> 1000	
Cn1nccc1-c1ccc([C@H]2CC[C@H](F)c3cc(F)cc(C#N)c32)c2c1[C@H](O)C(F)(F)C2 [Example 143, (5S,8R)-8-[(1S)-2,2-difluoro-1-hydroxy-7-(2-methylpyrazol-3-yl)-1,3-dihydroinden-4-yl]-3,5-difluoro-5,6,7,8-tetrahydronaphthalene-1-carbonitrile]			IC50 (HIF-2α; Table 2, 20 hours incubation): < 100 nM; IC50 ([1]; Table 2): < 100 nM
CS(=O)(=O)c1ccc([C@@H]2CCCc3cnccc32)c2c1[C@H](O)C(F)(F)C2 [Example 106]	> 1000	> 1000	
OCc1cc(N2CCCc3cc(F)cc(F)c32)ccc1C(F)(F)F [Example 63]	> 1000	> 1000	
N#Cc1cc(F)cc2c1[C@@H](c1ccc(S(=O)(=O)C(F)F)c3c1C[C@@H](F)[C@H]3O)CCC2 [Example 115]	< 100	< 100	
O=[N+]([O-])c1cc(C(O)(C(F)(F)F)C(F)(F)F)ccc1N1CCCc2cc(F)cc(F)c21 [Example 70]	> 1000	> 1000	
O=S(=O)(c1ccc(N2CCCc3cc(F)cc(F)c32)c2c1C(F)CC2)C(F)(F)F (stereo not shown) [Example 49]	> 1000	100 to 1000	
COc1cc(F)cc2c1N(c1ccc(S(=O)(=O)C(F)(F)F)c(C#N)c1Cl)CCC2 [Example 18, 2-chloro-3-(6-fluoro-8-methoxy-3,4-dihydroquinolin-1(211)-yl)-6-((trifluoromethyl)sulfonyl)benzonitrile]	> 1000	> 1000	
N#Cc1cc(F)cc2c1N(c1ccc(C(F)(F)F)c(F)c1C#N)CC[C@@H]2F [Example 121, (4S)-1-[2-Cyano-3-fluoro-4-(trifluoromethyl)phenyl]-4,6-difluoro-3,4-dihydro-2H-quinoline-8-carbonitrile]			IC50 (HIF-2α; Table 2, 20 hours incubation): < 100 nM; IC50 ([1]; Table 2): < 100 nM
Cc1ccc2c(c1)N(c1ccc(S(=O)(=O)C(F)(F)F)cc1[N+](=O)[O-])CCC2 [Example 74]	> 1000	> 1000	
CC1(C)CC[C@H](c2ccc(S(=O)(=O)C(F)(F)F)c3c2C[C@@H](F)[C@H]3O)c2c(C#N)cc(F)cc21 [Example 114]	< 100	< 100	
CS(=O)(=O)c1ccc([C@H]2CCCc3cc(F)cc(C#N)c32)c2c1[C@H](O)[C@H](F)CC2 [Example 98]	100 to 1000	100 to 1000	
CS(=O)(=O)c1ccc(C2CCCc3cc(F)cc(F)c32)c2cccnc12 (stereo not shown) [Example 110]	> 1000	> 1000	
N#Cc1cc(F)cc2c1N(c1ccc(C(F)(F)F)c(C#N)c1Cl)CCC2 [Example 28]	100 to 1000	100 to 1000	
N#Cc1cc(F)cc2c1N(c1ccc(C(F)(F)F)c(F)c1C(O)C(F)(F)F)CCC2 (stereo not shown) [Example 61]	> 1000	> 1000	
O=[N+]([O-])c1cc(S(=O)(=O)C(F)(F)F)ccc1N1CCCc2cc(F)ccc21 [Example 62]	> 1000	> 1000	
Cn1nccc1-c1ccc([C@H]2CCCc3cc(F)cc(C#N)c32)c2c1[C@H](O)C(F)(F)C2 [Example 116]	< 100	< 100	
N#Cc1cc(F)cc2c1N(c1cnc(C(F)(F)F)c(F)c1Cl)CCC2(F)F [Example 127, 1-[4-Chloro-5-fluoro-6-(trifluoromethyl)pyridin-3-yl]-4,4,6-trifluoro-2,3-dihydroquinoline-8-carbonitrile]			IC50 (HIF-2α; Table 2, 20 hours incubation): < 100 nM; IC50 ([1]; Table 2): < 100 nM

Structure (SMILES)	IC50 (HIF-2α; Table 1, 20 hours incubation) [nM]	IC50 ([1]; Table 1) [nM]	other results
Cc1cnn(C)c1-c1ccc([C@H]2CC[C@H](F)c3cc(F)cc(C#N)c32)c2c1[C@H](O)[C@H](F)C2 [Example 152]			IC50 (HIF-2α; Table 3, 20 hours incubation): < 100 nM; IC50 ([1]; Table 3): < 100 nM
O=S(=O)(c1ccc(N2CCCc3cc(F)cc(F)c32)c2c1[C@H](O)[C@H](F)C2)C(F)(F)F [Example 33]	100 to 1000	100 to 1000	
CC1CCN(c2ccc(S(=O)(=O)C(F)(F)F)c3c2C[C@@H](F)[C@H]3O)c2c(F)cc(F)cc21 (stereo partly shown) [Example 30]	100 to 1000	100 to 1000	
N#Cc1cc(S(=O)(=O)C(F)(F)F)ccc1N1CCCc2cc(F)cc(F)c21 [Example 80]	> 1000	> 1000	
N#Cc1cc(F)cc2c1[C@@H](c1ccc(C(F)(F)F)c(Cl)c1C#N)CC[C@H]2F [Example 138, (5R,8R)-8-[3-chloro-2-cyano-4-(trifluoromethyl)phenyl]-3,5-difluoro-5,6,7,8-tetrahydronaphthalene-1-carbonitrile]			IC50 (HIF-2α; Table 2, 20 hours incubation): 100 to 1000 nM; IC50 ([1]; Table 2): > 1000 nM
O=S(=O)(c1ccc(N2CCCc3cc(F)cc(F)c32)c(Cl)c1CO)C(F)(F)F [Example 83]	> 1000	> 1000	
Cn1cncc1-c1ccc([C@H]2CC[C@H](F)c3cc(F)cc(C#N)c32)c2c1[C@H](O)C(F)(F)C2 [Example 240, (5S,8R)-8-[(1S)-2,2-difluoro-1-hydroxy-7-(3-methylimidazol-4-yl)-1,3-dihydroinden-4-yl]-3,5-difluoro-5,6,7,8-tetrahydronaphthalene-1-carbonitrile]			IC50 (HIF-2α; Table 3, 20 hours incubation): < 100 nM; IC50 ([1]; Table 3): < 100 nM
N#Cc1cc(N2CCCc3cc(F)cc(C#N)c32)ccc1C(F)(F)F [Example 39]	> 1000	< 100	
CS(=O)(=O)c1ccc(N2CCCc3cc(F)cc(C#N)c32)c2c1[C@H](O)C(F)(F)C2 (racemic) [Example 31]	100 to 1000	100 to 1000	
N#Cc1cc(F)cc2c1N(c1ccc(C(F)(F)F)c(Cl)c1C#N)CCC2F (stereo not shown) [Example 123, 1-[3-Chloro-2-cyano-4-(trifluoromethyl)phenyl]-4,6-difluoro-3,4-dihydro-2H-quinoline-8-carbonitrile]			IC50 (HIF-2α; Table 2, 20 hours incubation): < 100 nM; IC50 ([1]; Table 2): < 100 nM
Cc1c([C@H]2CC[C@H](F)c3cc(F)cc(C#N)c32)cnc(C(C)(F)F)c1F [Example 139, (5S,8S)-8-[6-(1,1-difluoroethyl)-5-fluoro-4-methylpyridin-3-yl]-3,5-difluoro-5,6,7,8-tetrahydronaphthalene-1-carbonitrile]			IC50 (HIF-2α; Table 2, 20 hours incubation): < 100 nM; IC50 ([1]; Table 2): < 100 nM
O=S1(=O)c2ccc(N3CCCc4cc(F)cc(F)c43)c(Cl)c2C(F)C1(F)F (stereo not shown) [Example 56]	> 1000	100 to 1000	
Cn1ncc(C#N)c1-c1ccc([C@H]2CC[C@H](F)c3cc(F)cc(C#N)c32)c2c1[C@H](O)C(F)(F)C2 [Example 145, 5-[(3S)-7-[(1R,4S)-8-cyano-4,6-difluoro-1,2,3,4-tetrahydronaphthalen-1-yl]-2,2-difluoro-3-hydroxy-1,3-dihydroinden-4-yl]-1-methylpyrazole-4-carbonitrile]			IC50 (HIF-2α; Table 3, 20 hours incubation): < 100 nM; IC50 ([1]; Table 3): < 100 nM
CS(=O)(=O)c1c(Cl)cc([C@H]2CC[C@H](F)c3cc(F)cc(C#N)c32)c2c1[C@H](O)[C@H](F)C2 [Example 213, (5S,8R)-8-[(1S,2R)-6-Chloro-2-fluoro-1-hydroxy-7-methylsulfonyl-2,3-dihydro-1H-inden-4-yl]-3,5-difluoro-5,6,7,8-tetrahydronaphthalene-1-carbonitrile]			IC50 (HIF-2α; Table 3, 20 hours incubation): < 100 nM; IC50 ([1]; Table 3): < 100 nM
N#Cc1cc(F)cc2c1N(c1ccc(C(F)(F)F)c(F)c1C#N)CCC2C#N (stereo not shown) [Example 124, 1-[2-cyano-3-fluoro-4-(trifluoromethyl)phenyl]-6-fluoro-3,4-dihydro-2H-quinoline-4,8-dicarbonitrile]			IC50 (HIF-2α; Table 2, 20 hours incubation): < 100 nM; IC50 ([1]; Table 2): < 100 nM
Cn1nncc1-c1ccc([C@H]2CC[C@H](F)c3cc(F)cc(C#N)c32)c2c1[C@H](O)C(F)(F)C2 [Example 147, (5S,8R)-8-[(1S)-2,2-difluoro-1-hydroxy-7-(3-methyltriazol-4-yl)-1,3-dihydroinden-4-yl]-3,5-difluoro-5,6,7,8-tetrahydronaphthalene-1-carbonitrile]			IC50 (HIF-2α; Table 3, 20 hours incubation): < 100 nM; IC50 ([1]; Table 3): < 100 nM
N#Cc1cc(F)cc2c1N(c1ccc(S(=O)(=O)C(F)(F)F)c3ncccc13)CCC2 [Example 40]	> 1000	100 to 1000	
N#Cc1cc(F)cc2c1[C@@H](c1ccc(C(F)(F)F)c(Cl)c1C#N)CC[C@@H]2F [Example 137, (5S,8R)-8-[3-Chloro-2-cyano-4-(trifluoromethyl)phenyl]-3,5-difluoro-5,6,7,8-tetrahydronaphthalene-1-carbonitrile]			IC50 (HIF-2α; Table 2, 20 hours incubation): < 100 nM; IC50 ([1]; Table 2): < 100 nM
O=S(=O)(c1ccc([C@]2(O)CCCc3cc(F)cc(F)c32)c2c1[C@H](O)[C@H](F)C2)C(F)(F)F [Example 109]	> 1000	> 1000	
